Consider two molecules from US5369103A, “Piperazine derivatives” (John Wyeth & Brother, Limited, priority 1990, dated 1994).

In assay [1] the target is T1, 5HT1A receptor (Rattus norvegicus, UniProt P19327).
T1 construct: rat hippocampal membrane homogenate; from tissue; host or cells: rat hippocampus, membrane homogenate
T1 sequence (P19327 1-422): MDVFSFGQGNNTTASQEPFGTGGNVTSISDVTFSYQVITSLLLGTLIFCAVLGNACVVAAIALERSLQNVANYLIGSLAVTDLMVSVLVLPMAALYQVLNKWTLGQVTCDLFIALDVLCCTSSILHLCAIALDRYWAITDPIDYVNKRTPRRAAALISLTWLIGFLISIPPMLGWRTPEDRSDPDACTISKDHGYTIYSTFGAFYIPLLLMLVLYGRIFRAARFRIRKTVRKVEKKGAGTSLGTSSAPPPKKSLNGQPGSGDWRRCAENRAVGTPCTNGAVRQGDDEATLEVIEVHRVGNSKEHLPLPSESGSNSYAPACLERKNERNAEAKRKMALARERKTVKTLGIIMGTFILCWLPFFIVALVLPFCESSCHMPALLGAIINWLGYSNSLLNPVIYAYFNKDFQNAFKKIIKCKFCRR
Put plainly: 5HT1A receptor binding activity in rat hippocampal membrane homogenate. As to conditions: read-out: 1C50. On the procedure:
The compounds of the invention were tested for 5HT1A receptor binding activity in rat hippocampal membrane homogenate by the method of B. S. Alexander and M. D. Wood, J Pharm Pharmacol, 1988, 40,888-891. The results for representative compounds of the invention are given below

The test system of the next assay is α1 sites. Put plainly: affinity for α1 sites. Particulars: read-out: 1C50. The class given is binding.
Assay [2] addresses T2, 5HT1A receptor (Cavia porcellus, UniProt A0A286Y074).
T2 construct: guinea-pig ileum in vitro; from tissue; host or cells: guinea-pig ileum
T2 sequence (A0A286Y074 1-421): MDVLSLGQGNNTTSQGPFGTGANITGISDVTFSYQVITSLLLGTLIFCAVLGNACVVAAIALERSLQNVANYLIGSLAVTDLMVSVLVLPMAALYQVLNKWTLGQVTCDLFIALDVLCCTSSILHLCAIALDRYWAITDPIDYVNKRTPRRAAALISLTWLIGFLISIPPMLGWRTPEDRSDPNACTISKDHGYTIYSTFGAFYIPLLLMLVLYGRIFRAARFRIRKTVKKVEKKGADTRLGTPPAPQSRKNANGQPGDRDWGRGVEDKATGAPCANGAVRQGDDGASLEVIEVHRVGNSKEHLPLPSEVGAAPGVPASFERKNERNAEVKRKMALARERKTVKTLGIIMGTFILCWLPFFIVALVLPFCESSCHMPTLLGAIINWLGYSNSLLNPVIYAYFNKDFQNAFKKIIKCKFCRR
The assay is described as follows: 5HT1A receptor antagonism: antagonism of 5-carboxamidotryptamine in the guinea-pig ileum in vitro. It is filed as cell-based. As to conditions: read-out: pA2 (converted). On the procedure: The compounds are tested for 5HT1A receptor antagonism activity in a test involving the antagonism of 5-carboxamidotryptamine in the guinea-pig ileum in vitro (based upon the procedure of Fozard et al, Br J Pharmac, 1985, 86, 601P).

On to `COc1ccccc1N1CCN(C/C(=C/C(=O)N2CCCCCC2)c2ccccc2)CC1` [Example 3 (E-isomer), 2,3,4,5,6,7-Hexahydro-1-[4-(4-(2-methoxyphenyl)piperazin-1-yl)-3-phenylbut-2-enoyl]-1H-azepine], for which the IC50 at 5HT1A receptor [1] stood at 9 nM; with α1 sites it was 2160 nM.

On to `COc1ccccc1N1CCN(CC(CC(=O)N2CCCCCC2)c2ccccc2)CC1` (centres unmarked) [Example 6, 2,3,4,5,6,7-Hexahydro-1-[4-(4-(2-methoxyphenyl)piperazin-1-yl)-3-phenylbutanoyl]-1H-azepine], for which the values for the IC50 at 5HT1A receptor [1] and in the assay on α1 sites were 1.38 nM and 682 nM, respectively. Moreover, the Kb on 5HT1A receptor [2] is 0.794 nM.
